Test results: US8946273B2, “S-Triazolyl alpha-mercapto acetanilides as inhibitors of HIV reverse transcriptase” (priority 2011, dated 2015)
Read-outs that look alike come from different tables or passages of the source.

Assays:
wild type HIV-1 = test: microbe, parasite or virus in culture; type: cell-based, human immunodeficiency virus type 1 (HIV-1)
[1] = molecular target: T1, wild-type HIV reverse transcriptase (Human immunodeficiency virus type 1 group M subtype B, UniProt P04585); test: Activity on wild type reverse transcriptase (Table 1 IC50 WT); type: biochemical
T1 construct: wild-type and four mutant HIV reverse transcriptases

[2] = molecular target: mutant HIV reverse transcriptases (Human immunodeficiency virus type 1, UniProt P12497, Y775L, cells depend on it); type: cell-based
[3] = molecular target: mutant HIV reverse transcriptases (Human immunodeficiency virus type 1, UniProt P12497, Y768C, cells depend on it); type: cell-based
[4] = Human immunodeficiency virus 1, Hela-JC53, read-out: EC50 WT
[5] = read-out: EC50 WT, wild-type (WT) HIV-1
[6] = read-out: IC50 WT RT, wild-type (WT) RT

| Compound | EC50 (wild type HIV-1; [4]) [nM] | IC50 [1] [nM] | EC50 [2] [nM] | EC50 [3] [nM] | EC50 (wild type HIV-1; [5]) [nM] | IC50 [1, 6] [nM] |
| --- | --- | --- | --- | --- | --- | --- |
| CC[C@H](C)[C@H](NC(=O)c1ccc(NC(=O)CSc2nnc(Br)n2-c2ccc(C3CC3)c3ccccc23)c(Cl)c1)C(=O)O [compound 135] | < 50 | < 50 | > 100 | < 50 | – | – |
| CCc1ccc(-n2c(SCC(=O)Nc3ccc(C(=O)O)cc3C)nnc2C(F)F)c2ccccc12 [compound 3] | < 50 | < 50 | > 100 | 50 to 100 | – | – |
| NS(=O)(=O)c1ccc(NC(=O)CSc2nnc(C(F)F)n2-c2ccc(C3CCCC3)c3ccccc23)c(Cl)c1 [compound 99] | – | – | > 100 | < 50 | < 50 | < 50 |
| Cc1ccc(-n2c(SCC(=O)Nc3ccc(C(=O)O)cc3Cl)nnc2C(F)F)c2c1CCCC2 [compound 2] | < 50 | < 50 | < 50 | < 50 | – | – |
| CCc1ccc(-n2c(Br)nnc2SCC(=O)Nc2ccc(C(=O)NCC(OC)OC)cc2Cl)c2ccccc12 [compound 118] | < 50 | < 50 | < 50 | < 50 | – | – |
| O=C(CSc1nnc(Br)n1-c1ccc(C2CC2)c2ccccc12)Nc1ccc(C(=O)O)cc1Cl [compound 12] | – | – | < 50 | < 50 | < 50 | < 50 |
| CNS(=O)(=O)c1ccc(NC(=O)CSc2nnc(C(F)F)n2-c2ccc(C)c3c2CCCC3)c(Cl)c1 [compound 51] | < 50 | < 50 | < 50 | < 50 | – | – |
| CCc1ccc(-n2c(Br)nnc2SCC(=O)Nc2ccc(C(=O)O)cc2Cl)c2ccccc12 [compound 8] | < 50 | < 50 | < 50 | < 50 | – | – |
| CCc1ccc(-n2c(Br)nnc2SCC(=O)Nc2ccc(C(=O)O)cc2Br)c2ccccc12 [compound 22] | < 50 | < 50 | 50 to 100 | < 50 | – | – |
| COc1ccc2c(C3CC3)ccc(-n3c(Br)nnc3SCC(=O)Nc3ccc(S(=O)(=O)O)cc3Cl)c2c1 [compound 113] | 50 to 100 | < 50 | > 100 | 50 to 100 | – | – |
| Cc1cc(C)c2ccccc2c1-n1c(SCC(=O)Nc2ccc(S(N)(=O)=O)cc2Cl)nnc1C(F)(F)F [compound 84] | – | – | < 50 | < 50 | < 50 | < 50 |
